Assay results as given in publication PMC4224687 (Journal of Controlled Release, 2014).

Assay type: in vivo, male Sprague-Dawley rats
Details: rats, saline solution, 50 mg/kg

CO[C@H]1O[C@H](COS(=O)(=O)O)[C@@H](O[C@@H]2O[C@@H](C(=O)O)[C@@H](O[C@H]3O[C@H](COS(=O)(=O)O)[C@@H](O[C@@H]4O[C@H](C(=O)O)[C@@H](O[C@H]5O[C@H](COS(=O)(=O)O)[C@@H](O)[C@H](O)[C@H]5NS(=O)(=O)O)[C@H](O)[C@H]4O)[C@H](OS(=O)(=O)O)[C@H]3NS(=O)(=O)O)[C@H](O)[C@H]2OS(=O)(=O)O)[C@H](O)[C@H]1NS(=O)(=O)O [Fpx, Fondaparinux]
oral absorption: not absorbed
